Molecular target: T1, FOXP3 in HEK293T cells (Homo sapiens, UniProt Q9BZS1)
T1 construct: AVI tag (N); TEV site (N); expressed in transfected cells; host or cells: HEK293T
T1 sequence (Q9BZS1 1-431): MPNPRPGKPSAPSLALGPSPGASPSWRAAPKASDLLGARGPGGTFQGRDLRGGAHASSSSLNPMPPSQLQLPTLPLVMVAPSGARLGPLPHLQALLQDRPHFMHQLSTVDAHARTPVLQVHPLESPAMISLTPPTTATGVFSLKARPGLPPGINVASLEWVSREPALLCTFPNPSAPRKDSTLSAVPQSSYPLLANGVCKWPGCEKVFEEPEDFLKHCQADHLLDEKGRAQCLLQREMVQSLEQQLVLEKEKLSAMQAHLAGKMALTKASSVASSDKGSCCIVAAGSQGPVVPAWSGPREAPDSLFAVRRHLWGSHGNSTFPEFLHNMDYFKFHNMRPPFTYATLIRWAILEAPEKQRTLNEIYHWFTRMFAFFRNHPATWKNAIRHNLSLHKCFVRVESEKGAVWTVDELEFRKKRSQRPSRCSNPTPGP
Assay: Capture of FLAG-tagged FOXP3 complexes in transfected HEK293T cells, whole cell lysate western blot
Type: cell-based
Conditions: for crosslinked FOXP3 complexes in probe and UV treated cells: SPB-AAD 10 or 100 μM, SPB-PEG4-AAD 100 μM, UV 2-5 min, vs controls lanes 1-3
Method: FIG. 14C depicts 10 cm plate HEK293T cells (˜8.8 million) were transfected with 2 μg AVI-TEV-FLAG-FOXP3 for about 48 hr. The cells were harvested into 1.6 ml room temperature 1×DPBS buffer (with no calcium and magnesium). The cells were aliquoted into 300 μl per sample and each sample was added SPB-AAD 10 μM (A10) or 100 μM (A100) or SPB-PEG4-AAD 100 μM (p100). The samples were incubated at 37° C. for 30 min in dark with rotation. The samples were transferred to the middle wells of a 24-well plate (Corning #3527). With 300 μl, the liquid is about 1.5 mm high in a 24-well plate well. The samples on the 24-well plate were then UV illuminated (LED Chip: 21.4 mm×21.4 mm, 365-370 nm, 30 Watt, sample distance (the bottom of the well plate to the lamp plane) is 4 cm, exposure time 2-5 min at 4 degree C.). The BFPX-treated cells were recovered from the 24-well plate and washed using 1×DPBS, centrifuged at 500 g for 5 min to pellet the cells and remove the DPBS buffer. 0.5 million of the BFPX-treated cells was added 20 μl 1×RIPA buffer, shake on ice for 15 min to lyse the cells. The lysis mixture was then added 3 μl 10× MNase, 0.25 μl RnaseA, 12.5 Unit Mnase, and ddw to 30 μl, incubated at 37° C. for 15 min. The lysis mixture was then added 6 μl SDS loading dye (2% SDS), boil 10 min at 95° C. Run at 200V for 40 minutes on 4%-15% SDS-PAGE gel and analyzed by western blot (Transfer at 18V (30 mA) overnight, block in 2% BSA in PBS for 45 min, Primary antibody: 1:2000 anti-FLAG; room temperature, 2 hr; Secondary antibody: anti mouse light chain kappa 1: 100,000; Femto Signal ECL).
Finally, we tested the capture of transcription factors bound to genomic DNA inside cells. HEK293T cells transfected with FLAG-tagged FOXP3 were treated with various combination of UV illumination and probe (SPB-AAD: A; and P: SPB-PEG4-AAD). The cells were lysed in 1×RIPA buffer followed by RNase and MNase treatment. The whole cell lysate were then added SDS loading dye, heated at 95 degree C. and run on a 4-15% SDS PAGE gel and analyzed by western blot using an anti-FLAG antibody.

| dependence of crosslinked FOXP3 complex formation on probe concentration (10 μM (lane 4) vs 100 μM (lane 6)) | SMILES | crosslinked FOXP3 complexes in probe and UV treated cells |
| --- | --- | --- |
| dosage dependent on probe concentration | C#CCCC1(CCNC(=O)CCCOc2c3occc3cc3ccc(=O)oc23)N=N1 [SPB-AAD, N-(2-(3-(but-3-yn-1-yl)-3H-diazirin-3-yl)ethyl)-4-((7-oxo-7H-furo[3,2-g]chromen-9-yl)oxy)butanamide] | higher molecular weight species containing FOXP3 were observed |
|  | C#CCCC1(CCNC(=O)CCOCCOCCOCCOCCNC(=O)CCCOc2c3occc3cc3ccc(=O)oc23)N=N1 [SPB-PEG4-AAD, N-(2-(3-(but-3-yn-1-yl)-3H-diazirin-3-yl)ethyl)-1-(4-((7-oxo-7H-furo[3,2-g]chromen-9-yl)oxy)butanamido)-3,6,9,12-tetraoxapentadecan-15-amide] | higher molecular weight species containing FOXP3 were observed |

From patent US20250388597A1, “BIFUNCTIONAL PHOTOCROSSLINKING PROBES FOR COVALENT CAPTURE OF PROTEIN-NUCLEIC ACID COMPLEXES IN CELLS” (UNIVERSITY OF SOUTHERN CALIFORNIA, priority 2022, published 2025)
